Test results reported in US7943632B2, “High potency dopaminergic treatment of neurological impairment associated with brain injury” (NeuroHealing Pharmaceuticals, Inc., priority 2003, dated 2011).

Columns and labels:
[1] = tested on: patients of post-traumatic brain injury vegetative state (VS) and minimally conscious state (MCS); settings: in vivo
[2] = tested on: patients of post-traumatic brain injury vegetative state (VS) and minimally conscious state (MCS); experiment: Apomorphine open label study, Coma/Near Coma (CNC) Scale; format: in vivo, human
[3] = tested on: patients of post-traumatic brain injury vegetative state (VS) and minimally conscious state (MCS); experiment: Apomorphine open label study, Extended Glasgow Outcome Scale (GOS-E); format: in vivo, human
[4] = tested on: patients of post-traumatic brain injury vegetative state (VS) and minimally conscious state (MCS); experiment: Apomorphine open label study, Disability Rating Scale; format: in vivo, human
[5] = tested on: patients of post-traumatic brain injury vegetative state (VS) and minimally conscious state (MCS); experiment: Apomorphine open label study, safety observations; settings: Patient 02; approximately 4 months from the accident, dosing interrupted Day 47
[6] = tested on: patients of post-traumatic brain injury vegetative state (VS) and minimally conscious state (MCS); experiment: Apomorphine open label study, efficacy observations; format: in vivo, human
Procedure: The patients received the maximum tolerated dose, 12 to 16 hours per day, for up to 84 days (or shorter or longer as indicated). If the patient developed an adverse event, the dose was reduced or eliminated, according to the opinion of the attending physician. To prevent side effects from dopaminergic stimulation (such as nausea), domperidone was administered starting 24-72 hours (h) prior to initiation of the drug therapy.

[7] = cited from earlier work
[8] = cited from earlier work; remark: listed apart in the source
[9] = tested on: D2-like dopamine receptors; settings: cited from earlier work
[10] = tested on: Patient 01, traumatic brain injury (TBI); experiment: Prior drug treatment in clinical history of Patient 01; format: in vivo, human; settings: 15 mg/day for 12 days, before apomorphine study
[11] = Patient 01, Day 7 of s.c. apomorphine
[12] = Patient 01, Day 180, study termination
[13] = Patient 02, Day 7 of s.c. apomorphine
[14] = Patient 03, Day 7 of s.c. apomorphine
[15] = Patient 03, Day 180, treatment discontinued Day 84

## CN1CCc2cccc3c2[C@H]1Cc1ccc(O)c(O)c1-3 [apomorphine, (R)-5,6,6a,7-tetrahydro-6-methyl-4H-dibenzo[de,g]quinolin-10,11-diol]
[1]
  Adverse event: seizure
  Adverse events: agitation and fever
  Dyskinesias and hallucinations after dose reduction: disappeared
  ECG and clinical labs: no abnormal values
[1]; sc
  Tolerability of dose escalation: well tolerated
[2]; Patient 01, Day 0 (baseline)
  CNC: 20
[2]; [11]
  CNC: 2
[2]; Patient 01, Day 14
  CNC: 0
[2]; Patient 01, Day 21
  CNC: 0
[2]; Patient 01, Day 28
  CNC: 0
[2]; Patient 01, Day 42
  CNC: 0
[2]; Patient 01, Day 56
  CNC: 0
[2]; Patient 01, Day 70
  CNC: 0
[2]; Patient 01, Day 84
  CNC: 0
[2]; [12]
  CNC: 0
[2]; Patient 02, Day 0 (baseline)
  CNC: 36
[2]; Patient 02, Day 0 (baseline), listed as Apomorphine
  CNC: 37
[2]; [13]
  CNC: 33
[2]; Patient 02, Day 14
  CNC: 24
[2]; Patient 02, Day 21
  CNC: 24
[2]; Patient 02, Day 28
  CNC: 24
[2]; Patient 02, Day 42
  CNC: 26
[2]; Patient 03, Day 0 (baseline)
  CNC: 33
[2]; [14]
  CNC: 22
[2]; Patient 03, Day 14
  CNC: 18
[2]; Patient 03, Day 21
  CNC: 12
[2]; Patient 03, Day 28
  CNC: 12
[2]; Patient 03, Day 42
  CNC: 16
[2]; Patient 03, Day 56
  CNC: 16
[2]; Patient 03, Day 70
  CNC: 12
[2]; Patient 03, Day 84
  CNC: 8
[2]; [15]
  CNC: 0
[3]; Patient 01, Day 7
  GOS-E: 3
[3]; Patient 01, Day 14
  GOS-E: 3
[3]; Patient 01, Day 84
  GOS-E: 3
[3]; [12]
  GOS-E: 3
[3]; Patient 03, Day 84
  GOS-E: 3
[3]; Patient 03, baseline
  GOS-E: 2
[4]; Patient 01, Day 0 (baseline)
  DRS: 21
[4]; [11]
  DRS: 13
[4]; Patient 01, Day 14
  DRS: 13
[4]; Patient 01, Day 21
  DRS: 12.5
[4]; Patient 01, Day 28
  DRS: 12.5
[4]; Patient 01, Day 42
  DRS: 12
[4]; Patient 01, Day 56
  DRS: 10.5
[4]; Patient 01, Day 70
  DRS: 10.5
[4]; Patient 01, Day 84
  DRS: 10
[4]; [12]
  DRS: 15
[4]; Patient 02, Day 0 (baseline)
  DRS: 26
[4]; [13]
  DRS: 24
[4]; Patient 02, Day 14
  DRS: 19
[4]; Patient 02, Day 21
  DRS: 22
[4]; Patient 02, Day 28
  DRS: 22
[4]; Patient 03, Day 0 (baseline)
  DRS: 23
[4]; [14]
  DRS: 22
[4]; Patient 03, Day 14
  DRS: 22
[4]; Patient 03, Day 21
  DRS: 22
[4]; Patient 03, Day 28
  DRS: 22
[4]; Patient 03, Day 42
  DRS: 22
[4]; Patient 03, Day 56
  DRS: 22
[4]; Patient 03, Day 70
  DRS: 22
[4]; Patient 03, Day 84
  DRS: 21
[4]; [15]
  DRS: 12
[5]
  Patient outcome: died
[6]; Patient 01, Day 1, hours after initial dosing, 2 mg/h
  Efficacy observation: moved right thumb to command
[6]; Patient 01, Day 2, 4 mg/h
  Efficacy observation: moved limbs on command and answered yes/no questions
[6]; Patient 01, Day 3, 6 mg/h
  Efficacy observation: Spoke by phone with sibling and named four friends in their room
[6]; Patient 01, Day 4, 8 mg/h
  Efficacy observation: named objects and associated them with their function
[6]; Patient 01, Day 5, 8 mg/h
  Efficacy observation: oriented to physician's last name and name of the institution
[6]; Patient 01, Day 18
  Effect of pump remaining off for two hours: decrease in their awareness status
  Time to regain “on” status after reconnection of the pump: ≤ 15 min
[6]; Patient 01, Day 84
  Effect of attempt to discontinue the treatment: regressed to an “off” state
[6]; Patient 02
  Day of trial on which patient started to follow simple commands: 9
[6]; Patient 02, first two weeks of drug administration, maintained until the bleeding event
  Efficacy observation: improvement in the patient's consciousness state
[6]; Patient 03, Day 2
  Efficacy observation: started to vocalize words
[6]; Patient 03, Day 62
  Efficacy observation: started to clearly respond to commands, recognize family members, respond to their name and respond to their age
[6]; Patient 03, Day 84
  Effect of first attempt to discontinue drug: maintained their motor and cognitive improvements
[6]; Patients 01, 02 and 03 after traumatic brain injury
  Overall efficacy on altered consciousness state: effective at improving the altered consciousness state
[7]; from subcutaneous tissues
  Absorption and clearance: rapidly and completely absorbed from subcutaneous tissues and is rapidly cleared
[7]; parenterally administered
  Absorption: rapidly and completely absorbed
[8]; compared with other dopaminergic agents
  Incidence of psychological effects: lower incidence of psychological effects
[8]; subcutaneous administration at a concentration of 10 mg/ml
  Injection site reaction: nodule formation (panniculitis) may occur
[9]
  Affinity for D2-like dopamine receptors: particularly high affinity

## COC(=O)C(c1ccccc1)C1CCCCN1 (stereo not drawn) [methylphenidate]
[10]
  Response to treatment: no response to treatment
